In US20100272773A1, “Use of Drug Polymorphs to Achieve Controlled Drug Delivery From a Coated Medical Device” (BOSTON SCIENTIFIC SCIMED, INC., priority 2009, published 2010):

Test: Calculated time for complete dissolution of Ptx transferred to the vessel
Assay type: physicochemical
Settings: ~23 μg Ptx transferred to vessel divided by dissolution rate
Text: The ability to control the Ptx morphology on a drug coated balloon is important in achieving proper dosing. This is illustrated by the following example. […] Other factors such as particle size will also influence dissolution.

Time for complete dissolution of the Ptx | Time for complete dissolution | Compound
about 1 day |  | CC(=O)O[C@H]1C(=O)[C@@]2(C)[C@H]([C@H](OC(=O)c3ccccc3)[C@]3(O)C[C@H](OC(=O)[C@H](O)[C@@H](NC(=O)c4ccccc4)c4ccccc4)C(C)=C1C3(C)C)[C@]1(OC(C)=O)CO[C@@H]1C[C@@H]2O [PTx Anhydrous Crystal, paclitaxel]
 | about 10 days | CC(=O)O[C@H]1C(=O)[C@@]2(C)[C@H]([C@H](OC(=O)c3ccccc3)[C@]3(O)C[C@H](OC(=O)[C@H](O)[C@@H](NC(=O)c4ccccc4)c4ccccc4)C(C)=C1C3(C)C)[C@]1(OC(C)=O)CO[C@@H]1C[C@@H]2O [PTx 2H2O Crystalline, paclitaxel]
